Test results: a melting point compilation (Tetko et al.; mined from patent text by program, amines drawn as free bases though some values may be those of a salt)

SMILES	melting point [°C]
CCCCC(=O)N(Cc1ccc(-c2ccccc2-c2nc(=O)o[nH]2)cc1)c1sccc1C(=O)OC	154 to 155
CCCCNC(=O)N(C)c1cccc(-c2ccc(C=C(OCC)C(=O)O)cc2)c1	126
CCCCc1csc2ccc3[nH]c4c(c3c12)CNCC4	224 to 225
Cc1ccccc1-c1nc(-c2ccc(F)cc2)n[nH]1	119 to 121
COc1ccc(C(=NO)c2ccccc2F)c(O)c1C	167 to 169
Cc1ccc(Oc2nc3nc(C)cc(C)n3n2)c(C)c1	133 to 136
O=C(O)c1ccc(-c2cc(-c3ccccc3)no2)cc1	> 300
CCOC(=O)c1cnc2c(c(-c3ccccc3)nn2C)c1N(C)S(=O)(=O)c1ccc(Oc2ccncc2)cc1	128 to 131
Cc1nc(Cl)c([N+](=O)[O-])c(N(c2ccccc2)c2ccccc2)n1	128 to 130
CSc1ccc(-n2cnc(-c3ccc(F)cc3)c2-c2ccncc2)cc1	172 to 173
COc1ccc(Cl)c2c1CCC(CCl)=C2	68 to 69.5
COc1ccccc1-n1c(-c2sc(Nc3ccccc3)nc2C)nc2ccccc2c1=O	169 to 170
CCCSc1ncc(C(=O)N[C@@H](Cc2ccc(O)cc2)C(=O)OC)n1Cc1ccccc1Cl	180 to 182
CCc1noc(C)c1-c1[nH]c2ccccc2c1CCCCN(C)C	156 to 158
CCOc1nc2cc(Cl)c(Cl)cc2nc1N	191 to 193
Nc1nc(COc2ccc(Cl)c(Cl)c2)nc2nccnc12	261 to 263
CC(C)(C#N)C(O)(CCc1ccc(F)cc1)Cn1cncn1 (configuration not stated)	152 to 154
NC(=O)C(N)Cc1ccc([N+](=O)[O-])cc1 (configuration not stated)	160 to 162
N#CC(SCCc1ccc2c(c1)OCO2)C(=O)O (configuration not stated)	106 to 107
CC(C)NC1=NS(=O)(=O)c2sc(Cl)cc2N1	281 to 283
COC(=O)c1cc([N+](=O)[O-])ccc1Nc1ccc(CCc2ccc(Cl)c(Cl)c2)cc1	107 to 108
CC(=O)C(=NO)c1ccc(OC[Si](C)(C)c2ccc(F)cc2)cc1	115 to 117
COc1cc(Nc2c(C#N)cnc3cc4cc(OCCN5CCOCC5)c(OC)cc4cc23)c(Cl)cc1F	206 to 222
CN(NCc1ccccc1)c1cnn(-c2cccc(C(F)(F)F)c2)c(=O)c1	89 to 90
O=C(O)CN1Cc2ccccc2CC(NC(=O)OCC2c3ccccc3-c3ccccc32)C1=O (configuration not stated)	117 to 120

SMILES	melting point [°C]
Cc1ccc(C(=O)Nc2ccc(N3CCN(Cc4ccc[nH]4)CC3)cc2)c(-c2ccc(C(F)(F)F)cc2)c1	196 to 198
O=c1[nH]c2cc(Cl)cc(Cl)c2c(=O)n1Cc1cccc(Cl)c1	276 to 279
CCc1cccc(C)c1CNc1nc(OC)cc2c1nc(C)n2C	106 to 107
O=C(/C=C/[C@@H]1[C@H]2CC(=O)O[C@H]2C[C@H]1OC(=O)c1ccccc1)COc1cccc(Cl)c1	101 to 102
O=C(Nc1cc(Cl)cc2c(Cl)ccnc12)c1c(Cl)cccc1Cl	201 to 205
O=C(c1ccc(Cl)c([N+](=O)[O-])c1)c1ccc(Cl)c([N+](=O)[O-])c1	131 to 132
NC(=O)c1ccc(OCCNCC(O)COc2nccnc2Cl)cc1 (configuration not stated)	134 to 135
CCOC(=O)CN(C(=S)Nc1cc(Cl)ccc1C)c1ccccc1	148 to 150
S=C1Nc2ccccc2CN(c2ccccc2)N1	242 to 244
CCCc1cn(C)c2c(=O)[nH]c(-c3cc(S(=O)(=O)N4CCN(CCCOC(C)=O)CC4)ccc3OCC)nc12	157 to 158
CC1(C)OCCn2c1nc(C(=O)NCc1ccc(F)cc1P(=O)(O)OCc1ccccc1)c(OCc1ccccc1)c2=O	142
COc1ccc(C(=O)Oc2ccc(C(=O)O)cc2F)cc1C12CC3CC(CC(C3)C1)C2	258 to 260
CCCc1c(C#N)c(-c2ccc(C#N)cc2)c(C)n1Cc1cnc(Cl)c(CO)c1	137 to 138
O=[N+]([O-])C(Sc1ccccc1)=C1NCCCS1	144 to 147
Cc1noc(NC(=O)N2CCN(c3cncc(-c4ccc(F)cc4F)c3)CC2)c1C	147 to 148
O=C(NCc1cccnc1)c1ccc2n1Cc1ccccc1N(C(=O)c1ccc(-c3ccccc3CN3CCOCC3)cc1)C2	191 to 194
Cc1cc(CNC(=O)c2sc(N3C[C@@H](C)N(Cc4ccc(F)cc4)C3=O)nc2C)[nH]n1	215 to 216
O=C(O)c1ccc(-c2ccc(Cl)cc2)cc1	191 to 192
O=C(O)C1Cc2c(ccc3c(=O)c4c(F)cccc4oc23)O1 (configuration not stated)	262 to 265
COc1ccc(C)cc1NC(=O)Nc1ccc(N2CCN(C(=O)Nc3ccc(N(C)CCO)cc3C)CC2)cc1	208 to 210
COc1ccc2c(c1)CCC1CCNC(=O)C(CC(=O)O)=C21 (configuration not stated)	232 to 234
C=CCCN(c1ccc(OC)cc1)S(=O)(=O)c1c(F)c(F)c(F)c(F)c1F	64 to 66
N#CCCN1CCN(C(c2ccccc2)c2ccccn2)CC1 (configuration not stated)	114 to 116
NS(=O)(=O)c1ccc(-c2[nH]c3ccccc3c2-c2ccccc2)cc1	231 to 232
CCOC(=O)c1c(CN(CC)CC)nc2sc3c(c2c1-c1ccc(OC)c(OC)c1)CN(C(=O)c1ccc(Cl)cc1)CC3	91 to 92

SMILES	melting point [°C]
COc1cc(-c2nc3ccc(OCCCN4CCCCC4)cc3n2Cc2ccccc2)cc(OC)c1OC	92
CC(C)(C)C(=O)OCOC(=O)c1[nH]c2ccccc2c1Nc1ccncc1	223 to 224
CC/C(=C(\c1ccc(/C=C/C(=O)O)cc1)c1ccc(OP(=O)(O)O)cc1)c1ccccc1	181 to 183
CCC(=O)OCC1OC(n2cc(F)c(=O)n(C(=O)c3cccc(OC)c3OC)c2=O)CC1OC(=O)CC (configuration not stated)	84.5 to 86
O=C(C(=O)c1ccc([N+](=O)[O-])cc1)c1ccc([N+](=O)[O-])cc1	211 to 212
CN(c1ccc(F)c(C(F)(F)F)c1)c1nccc(-c2ccc(F)c(C(F)(F)F)c2)n1	83 to 84
CN1CCc2c(c(P(=O)(O)O)cc3[nH]c(=O)c(=O)[nH]c23)C1	> 325
COc1ccc(C=C2SC(N3CCOCC3)=NC2=O)cc1-c1ccc(O)c(C23CC4CC(CC(C4)C2)C3)c1	339 to 343
CCn1nnn(CCN2CCC(COC)(N(OCc3ccccc3)C(C)=O)CC2)c1=O	140 to 141
O=C1N(c2cc(Cl)cc(Cl)c2)C(=O)[C@]2(Cc3ccc(Br)cc3)C[C@@H](O)CN12	88.3
OCc1cn(-c2ccc(SC(F)(F)F)cc2)cn1	145 to 147
CCC1C(=O)N(CCCCN2CCN(c3ccccn3)CC2)c2cc(F)ccc21 (configuration not stated)	137 to 139
CCCCN(CCCc1coc2c(OC)cccc12)C1COc2c(F)ccc(C(N)=O)c2C1 (configuration not stated)	110 to 117
CCCCC(=O)c1[nH]c(=O)[nH]c1C	222 to 224
CSc1nc(N)c(N)c(=O)n1C	211 to 212
CCOc1nc2c(nc1C(=O)O)c(C)nn2CC	172
Cc1sc(-c2ccccc2)nc1COc1ccc(COc2ncccc2CC(=O)O)cc1	128 to 129
CCNc1cccc(-c2ccnc3c(C(=O)c4ccco4)cnn23)c1	142 to 143
O=C(O)c1ccccc1-c1nc2ccccc2o1	> 250
Nc1cccc(-n2nnnc2S)c1	205
N#Cc1[nH]c2ccc(C(O)(C(F)(F)F)C(F)(F)F)cc2c1-c1ccccc1	247 to 249
NS(=O)(=O)c1cccc2c1SCC=C2	214 to 216
O=c1[nH]c2cc(Cl)ccc2cc1-c1ccc(O)cc1	262
N=C(N)c1ccccc1-c1ccccc1	148 to 150
COc1c(N(C)C)cc(CC(C#N)=CNc2ccccc2)cc1N(C)C(C)=O	176 to 178

SMILES	melting point [°C]
CC(C)OC(=O)c1ccc2c(c1)ncn2-c1cccc(-c2cccnc2Cl)c1	147 to 150
N#Cc1c(N)cccc1Sc1ccccc1	73 to 77
NS(=O)(=O)c1cccc2cncn12	148 to 151
O=[N+]([O-])c1ccc2sc(NCCCO)nc2c1	140 to 144
CCOC(=O)/C=C(/c1ccc(Cl)cc1)c1cccc(OC)c1OC	82 to 84
Cc1nn(-c2c(Cl)cc(C(F)(F)F)cc2Cl)nc1C(=O)O	185 to 186
Cc1sc(-c2ccccc2)nc1COc1ccc(COc2ncccc2CO)cc1	111 to 112
COc1ccc(OC)c(NC(=O)C2OC(=O)c3ccccc3C2c2ccc(F)cc2)c1 (configuration not stated)	133 to 136
Nc1cc(Cl)c(Br)cc1C(=O)O	228 to 230
CC(C)c1cccc(C(C)C)c1NC(=O)NCC1(c2c(Cl)cccc2Cl)CCC1	174 to 177
O=C(O)CCCCCNS(=O)(=O)c1ccc(Cl)cc1	126 to 127
COc1ccc(S(=O)(=O)N(c2ccc(Cl)cc2Cc2c(F)cccc2F)C(C)CO)cc1OC (configuration not stated)	169
Cc1cc(F)c(Nc2ncnc3cc(NC(=O)CCN4CCOCC4)ccc23)cc1O	228 to 233
CCN1CC(COS(=O)(=O)c2ccc(C)cc2)Oc2ccccc21 (configuration not stated)	85 to 87
COc1ccc(N=C2SC(=CC(=O)O)C(=O)N2c2ccc(OC)cc2)cc1	184 to 187
O=C(NC1CCN(CCCOC(=O)c2ccccc2)CC1)c1ccccc1	146 to 147
COc1ccc(C(=O)Nc2ccc3c(c2)CCCC3=O)cc1	163 to 166
CCNC(=O)c1ccc(-c2ccc3nnn(Cc4ccc5ncccc5c4)c3n2)cc1Cl	187 to 190
CC(C)n1nc(-c2c(-c3ccccc3)nc(N)nc2-n2cnc3ccccc32)ccc1=O	242 to 244
O=C(N1CCCC1)C1(N2CCCCC2)CCNCC1	144
CN(CCc1cn(C(=O)OCc2ccccc2)c2ccc([N+](=O)[O-])cc12)C(=O)C(F)(F)F	107 to 109
O=S1(=O)N=C(Nc2ccccn2)Nc2ccc(Cl)cc21	> 310
